Columns and labels:
barnyardgrass = assay: Test A pre-/postemergence greenhouse test; type: in vivo, Echinochloa crus-galli; settings: for Plant response rating, Barnyardgrass: 0 to 100 scale where 0 is no effect and 100 is complete control; for Barnyardgrass plant response rating: 0 to 100 scale
In short: (§1)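 Planting was into mixed loam soil and sand; preemergence treatment followed as a directed soil spray. Concurrently, emerged plants (one- to two-leaf, 2–10 cm) received postemergence applications of identically formulated compound (non-phytotoxic solvent, surfactant). After approximately ten days under greenhouse conditions, injury was judged by eye against untreated plants.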

morningglory [1] = assay: Test A pre-/postemergence greenhouse test; type: in vivo, Ipomoea spp.; settings: for Plant response rating, Morningglory: 0 to 100 scale where 0 is no effect and 100 is complete control; for Morningglory plant response rating: 0 to 100 scale
In short: as §1

blackgrass = assay: Test C pre-/postemergence test; type: in vivo, Alopecurus myosuroides; settings: Postemergence; for Plant response rating, Blackgrass: scale 0 to 100, 0 no effect, 100 complete control
Excerpt: (§2) Seeds of plant species selected from blackgrass (Alopecurus myosuroides), downy brome (Bromus tectorum), green foxtail (Setaria viridis), Italian ryegrass (Lolium multiflorum), wheat (Triticum aestivum), wild oat (Avena fatua), catchweed bedstraw (Galium aparine), Russian thistle (Salsola kali), […] (Cynodon dactylon), Surinam grass (Brachiaria decumbens), cocklebur (Xanthium strumarium), corn (Zea mays), crabgrass (Digitaria sanguinalis), woolly cupgrass (Eriochloa villosa), giant foxtail (Setaria faberii), Goosegrass (Eleusin indica), johnsongrass (Sorghum halepense), kochia (Kochia scoparia), lambsquarters (Chenopodium album), morningglory (Ipomoea coccinea), eastern black nightshade (Solanum ptycanthum), yellow nutsedge (Cyperus esculentus), pigweed (Amaranthus retroflexus), common ragweed (Ambrosia elation), soybean (Glycine max), common (oilseed) sunflower (Helianthus annuus), and velvetleaf (Abutilon theophrasti) were planted and treated preemergence with test chemicals formulated in a non-phytotoxic solvent mixture which included a surfactant. At the same time, plants selected from these crop and weed species and also winter barley (Hordeum vulgare), canarygrass (Phalaris minor), and chickweed (Stellaria media) were treated with postemergence applications of some of the test chemicals formulated in the same manner. Plants ranged in height from 2 to 18 cm (1- to 4-leaf stage) for postemergence treatments. […] At time of treatment, test pots were flooded to 3 cm above the soil surface, treated by application of test compounds directly to the paddy water, and then maintained at that water depth for the duration of the test. […] A dash (-) response means no test result.

green foxtail = assay: Test C pre-/postemergence test; type: in vivo, Setaria viridis; settings: Postemergence; for Plant response rating, Foxtail, Green: scale 0 to 100, 0 no effect, 100 complete control
Excerpt: as §2

Italian ryegrass = assay: Test C pre-/postemergence test; type: in vivo, Lolium multiflorum; settings: Postemergence; for Plant response rating, Ryegrass, Italian: scale 0 to 100, 0 no effect, 100 complete control
Excerpt: as §2

wheat = assay: Test C pre-/postemergence test; type: in vivo, Triticum aestivum; settings: Postemergence; for Plant response rating, Wheat: scale 0 to 100, 0 no effect, 100 complete control
Excerpt: as §2

cocklebur = assay: Test C pre-/postemergence test; type: in vivo, Xanthium strumarium; settings: Postemergence; for Plant response rating, Cocklebur: scale 0 to 100, 0 no effect, 100 complete control
Excerpt: as §2

corn = assay: Test C pre-/postemergence test; type: in vivo, Zea mays; settings: Postemergence; for Plant response rating, Corn: scale 0 to 100, 0 no effect, 100 complete control
Excerpt: as §2

crabgrass = assay: Test C pre-/postemergence test; type: in vivo, Digitaria sanguinalis; settings: Postemergence; for Plant response rating, Crabgrass, Large: scale 0 to 100, 0 no effect, 100 complete control
Excerpt: as §2

woolly cupgrass = assay: Test C pre-/postemergence test; type: in vivo, Eriochloa villosa; settings: Postemergence; for Plant response rating, Cupgrass, Woolly: scale 0 to 100, 0 no effect, 100 complete control
Excerpt: as §2

kochia = assay: Test C pre-/postemergence test; type: in vivo, Kochia scoparia; settings: Postemergence; for Plant response rating, Kochia: scale 0 to 100, 0 no effect, 100 complete control
Excerpt: as §2

morningglory [2] = assay: Test C pre-/postemergence test; type: in vivo, Ipomoea coccinea; settings: Postemergence; for Plant response rating, Morningglory: scale 0 to 100, 0 no effect, 100 complete control
Excerpt: as §2

yellow nutsedge = assay: Test C pre-/postemergence test; type: in vivo, Cyperus esculentus; settings: Postemergence; for Plant response rating, Nutsedge, Yellow: scale 0 to 100, 0 no effect, 100 complete control
Excerpt: as §2

pigweed = assay: Test C pre-/postemergence test; type: in vivo, Amaranthus retroflexus; settings: Postemergence; for Plant response rating, Pigweed: scale 0 to 100, 0 no effect, 100 complete control
Excerpt: as §2

soybean = assay: Test C pre-/postemergence test; type: in vivo, Glycine max; settings: Postemergence; for Plant response rating, Soybean: scale 0 to 100, 0 no effect, 100 complete control
Excerpt: as §2

umbrella sedge = assay: Test C flooded paddy test; type: in vivo, Cyperus difformis; settings: Flood
In short: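 Pots were flooded to 3 cm above the soil surface at treatment, compound applied directly to the paddy water, and that depth held throughout. Plants were kept in a greenhouse for 13 to 15 days, then visually rated against untreated controls.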

[3] = Postemergence, 500 g ai/ha, 0 is no effect, 100 is complete control
[4] = Preemergence, 125 g ai/ha, 0 no effect, 100 complete control

CCn1nc(C(F)(F)F)c(C(C)S(=O)(=O)c2cccc[n+]2[O-])c1OCC(F)(F)F (centres unmarked) [Compound 69]
Plant response rating, Barnyardgrass (barnyardgrass; Postemergence, 125 g ai/ha): 80
Barnyardgrass plant response rating (barnyardgrass; [3]): 90
Barnyardgrass plant response rating (barnyardgrass; [4]): 60
Plant response rating, Barnyardgrass (barnyardgrass; Preemergence, 500 g ai/ha): 100
Plant response rating, Morningglory (morningglory [1]; Postemergence, 125 g ai/ha): 40
Morningglory plant response rating (morningglory [1]; [3]): 70
Morningglory plant response rating (morningglory [1]; [4]): 50
Plant response rating, Morningglory (morningglory [1]; Preemergence, 500 g ai/ha): 100
Plant response rating (0 to 100), Blackgrass (blackgrass; 31 g ai/ha): 0
Plant response rating, Blackgrass (blackgrass; 62 g ai/ha): 0
Plant response rating, Blackgrass (blackgrass; 125 g ai/ha): 85
Plant response rating, Blackgrass (blackgrass; 250 g ai/ha): 95
Plant response rating (0 to 100), Foxtail, Green (green foxtail; 31 g ai/ha): 0
Plant response rating, Foxtail, Green (green foxtail; 62 g ai/ha): 0
Plant response rating, Foxtail, Green (green foxtail; 125 g ai/ha): 30
Plant response rating, Foxtail, Green (green foxtail; 250 g ai/ha): 90
Plant response rating (0 to 100), Ryegrass, Italian (Italian ryegrass; 31 g ai/ha): 0
Plant response rating (0 to 100), Ryegrass, Italian (Italian ryegrass; 62 g ai/ha): 40
Plant response rating, Ryegrass, Italian (Italian ryegrass; 125 g ai/ha): 50
Plant response rating, Ryegrass, Italian (Italian ryegrass; 250 g ai/ha): 95
Plant response rating (0 to 100), Wheat (wheat; 31 g ai/ha): 0
Plant response rating (0 to 100), Wheat (wheat; 62 g ai/ha): 0
Plant response rating, Wheat (wheat; 125 g ai/ha): 20
Plant response rating, Wheat (wheat; 250 g ai/ha): 50
Plant response rating (0 to 100), Cocklebur (cocklebur; 31 g ai/ha): 0
Plant response rating, Cocklebur (cocklebur; 62 g ai/ha): 0
Plant response rating, Cocklebur (cocklebur; 125 g ai/ha): 0
Plant response rating, Cocklebur (cocklebur; 250 g ai/ha): 0
Plant response rating (0 to 100), Corn (corn; 31 g ai/ha): 0
Plant response rating, Corn (corn; 62 g ai/ha): 0
Plant response rating, Corn (corn; 125 g ai/ha): 0
Plant response rating, Corn (corn; 250 g ai/ha): 0
Plant response rating (0 to 100), Crabgrass, Large (crabgrass; 31 g ai/ha): 0
Plant response rating, Crabgrass, Large (crabgrass; 62 g ai/ha): 0
Plant response rating, Crabgrass, Large (crabgrass; 125 g ai/ha): 0
Plant response rating, Crabgrass, Large (crabgrass; 250 g ai/ha): 0
Plant response rating (0 to 100), Cupgrass, Woolly (woolly cupgrass; 31 g ai/ha): 0
Plant response rating, Cupgrass, Woolly (woolly cupgrass; 62 g ai/ha): 0
Plant response rating, Cupgrass, Woolly (woolly cupgrass; 125 g ai/ha): 0
Plant response rating, Cupgrass, Woolly (woolly cupgrass; 250 g ai/ha): 0
Plant response rating (0 to 100), Kochia (kochia; 31 g ai/ha): 0
Plant response rating, Kochia (kochia; 62 g ai/ha): 0
Plant response rating, Kochia (kochia; 125 g ai/ha): 0
Plant response rating, Kochia (kochia; 250 g ai/ha): 0
Plant response rating (0 to 100), Morningglory (morningglory [2]; 31 g ai/ha): 0
Plant response rating, Morningglory (morningglory [2]; 62 g ai/ha): 0
Plant response rating, Morningglory (morningglory [2]; 125 g ai/ha): 0
Plant response rating, Morningglory (morningglory [2]; 250 g ai/ha): 0
Plant response rating (0 to 100), Nutsedge, Yellow (yellow nutsedge; 31 g ai/ha): 0
Plant response rating, Nutsedge, Yellow (yellow nutsedge; 62 g ai/ha): 0
Plant response rating, Nutsedge, Yellow (yellow nutsedge; 125 g ai/ha): 0
Plant response rating, Nutsedge, Yellow (yellow nutsedge; 250 g ai/ha): 0
Plant response rating (0 to 100), Pigweed (pigweed; 31 g ai/ha): 0
Plant response rating (0 to 100), Pigweed (pigweed; 62 g ai/ha): 0
Plant response rating, Pigweed (pigweed; 125 g ai/ha): 0
Plant response rating, Pigweed (pigweed; 250 g ai/ha): 0
Plant response rating (0 to 100), Soybean (soybean; 31 g ai/ha): 0
Plant response rating (0 to 100), Soybean (soybean; 62 g ai/ha): 30
Plant response rating, Soybean (soybean; 125 g ai/ha): 30
Plant response rating, Soybean (soybean; 250 g ai/ha): 35
Plant response rating, Sedge, Umbrella (umbrella sedge; 62 g ai/ha, scale 0 to 100 (0 no effect, 100 complete control)): 100
Plant response rating, Sedge, Umbrella (umbrella sedge; 250 g ai/ha, scale 0 to 100, 0 no effect, 100 complete control, 13 to 15 days): 100
